In patent US20140072567A1, “Methods Of Treating And Preventing Glucose Toxicity” (Walter and Eliza Hall Institute of Medical Research, ACN …, priority 2008, published 2014):

Key:
iNOS = assay: Western blotting for iNOS expression in islets; assay type: cell-based, mice; conditions: islets cultured in high glucose (33.3 mM) in the presence of IFNγ
Method: (§1) FIG. 2: IL-1β or Fas are not required for glucose or ribose induced beta cell apoptosis. (A) 200 islets from wild-type, IL-1R^−/− and B6^lpr/lpr mice were cultured for 6 days in 5.6 mM low glucose medium (unt) or 33.3 mM D-glucose or for 4 days in 50 mM ribose. DNA fragmentation was measured by flow cytometry. (B) 100 wild-type islets were cultured for 7 days in 5.6 mM or 33.3 mM D-glucose with cytokines added in the last 4 days and iNOS expression, NO production and DNA fragmentation was measured. Representative Western blot for iNOS expression (β-actin used as loading control). (C) NO2 determination of culture supernatant (D) DNA fragmentation was measured by flow cytometry. (E) Wild-type islets were cultured in 50 mM ribose or cytokines for 2 days, 33.3 mM D-glucose for 4 days (solid lines) compared to islets cultured in 5.6 mM D-glucose (broken lines). Fas expression on β cells was analysed by FACS analysis. (F) Wild-type islets cultured for 7 days in 5.6 mM (−) or 33.3 mM (+) glucose with cytokines or FasL added in the last 4 days. The data represent the mean±S.E.M of three experiments. Islets were incubated for 4 days with cytokines and 33.3 mM glucose, transferred to microcentrifuge tubes and washed three times in PBS. […]

Fas = Fas expression on islet beta cells by flow cytometry; assay type: cell-based, mice; conditions: high glucose (33.3 mM, 4 days) compared to untreated controls
Method: as §1, with “Islets cells” for “Islets”, “analysed” for “incubated”, “expression of Fas by flow cytometry as previously described (Thomas et al., 1999). Islets were dispersed into single cells as described above” for “4 days with cytokines”, “stained using standard procedures.” for “33.3 mM glucose, transferred to microcentrifuge tubes and washed three times in PBS.”

[1] = system: islets from wild-type mice; assay: Cytochrome c release from mitochondria (flow cytometry); assay type: cell-based
Method: FIG. 1: Wild-type islets cultured in high concentrations of glucose or ribose undergo DNA fragmentation and mitochondrial release of cytochrome C, both indicative of apoptosis, and have a reduced ability to secrete insulin. (A) 200 islets from wild-type C57BL/6 mice were either cultured in low glucose medium (5.6 mM) (unt) or cultured in high glucose media (33.3 mM) for 6 days or high ribose medium (50 mM) for 4 days and DNA fragmentation was measured. Representative flow cytometry profiles are shown i). Data represent islets from 13-17 individual mice per group ii). Statistical significance; *p<0.001 compared with unt (one-way ANOVA). (B) 100 islets from wild-type mice were cultured under conditions mentioned above for 4 and 3 days respectively and cytochrome C release was measured. Representative flow cytometry profiles are shown i). Data represent islets from 4 individual mice per group. ii) Statistical significance; *p<0.001 ** p<0.05 compared with unt (one-way ANOVA). (C) wild-type islets were cultured in high concentrations of ribose (50 mM) for 2 days and insulin release was measured after glucose stimulation. Statistical significance; *p<0.01 compared with unt (one-way ANOVA). […]

bim = assay: Real-time qRT-PCR of islets, bim; assay type: cell-based, mice; conditions: for up-regulation of bim mRNA: islets exposed to high concentrations of glucose or ribose
Method: (§2) FIG. 7: Ribose induces expression of Puma and Bax in islets. Quantitative RT-PCR of wild-type islets cultured in control medium or medium containing 50 mM ribose, 33.3 mM glucose or 5 μM thapsigargin for 24 or 48 h. Relative RNA expression levels for (A) Puma (B) Bim and (C) Bax were calculated by normalizing to the signal for β-actin in each sample and comparison to islets cultured in control medium. Mean±SEM of 3-4 independent experiments is shown. Statistical significance *p<0.05, **p<0.01 compared with control (two-tailed paired t-test). RNA was prepared using the RNeasy Kit (Qiagen). First strand cDNA was prepared from 0.1-0.2 μg RNA using the High Capacity RNA-to-cDNA Master Mix (Applied Biosystems). Real-time PCR was performed using the ABI Prism 7900 (Applied Biosystems) and the Power SYBR Green PCR Master Mix (Applied Biosystems) in 15 μl reaction volumes. Data analyses were performed with the CT method using actin as an internal control. qRT-PCR was performed using the following forward and reverse primers (a kind gift from Drs DCS Huang and M Narita) (Table 1).

[2] = system: islets from wild type C57BL/6 mice; assay: DNA fragmentation assay (sub-diploid DNA, flow cytometry); assay type: cell-based; conditions: for DNA fragmentation: wild-type islets
Method: Uniformly sized islets (excluding very large or necrotic islets) were handpicked into 3.5 cm Petri dishes containing 1.1 mL of complete CMRL. Islets were then cultured with the appropriate stimuli to cause DNA fragmentation. At the end of the culture period, non-attached cells and islets were transferred into polypropylene tubes and washed in PBS. Islets were then dispersed with trypsin (0.1 mg/mL bovine trypsin (Calbiochem) and 2 mmol/L EDTA in PBS) for 5 min at 37° C. Islets were mechanically dispersed using a pipette, washed in PBS, and allowed to recover in complete CMRL medium for 1 h at 37° C. in 5% CO2. Cells were then washed in PBS and resuspended in 250 μL of hypotonic buffer containing 50 mg/mL propidium iodide (Sigma-Aldrich), 0.1% sodium citrate, and 0.1% TritonX-100 which stains nuclear DNA. The cells were then analyzed on a FACSCalibur (Becton Dickinson, Franklin Lakes, N.J., USA) using the FL3 channel. Cells undergoing apoptosis were identified by their sub-diploid DNA content as previously described (Riccardi and Nicoletti, 2006).

puma = assay: Real-time qRT-PCR of islets, puma; assay type: cell-based, mice
Method: as §2

wild type islets = assay: Glucose-stimulated insulin secretion assay; assay type: cell-based, mice; conditions: wild type islets exposed to ribose (50 mM) for two days
Method: Insulin secretion assays were performed as previously described (Thomas et al., 2002). Two hundred islets were cultured in complete CMRL and ribose for 2 days, then washed three times in Krebs-Ringer bicarbonate buffer (KRB; 25 mmol/l HEPES, 115 mmol/l NaCl, 24 mmol/l NaHCO3, 5 mmol/l MgCl2, 2.5 mmol/l CaCl2, pH 7.4) with 3 mmol/l glucose and 0.1% BSA. Groups of 20 islets in quadruplicate were incubated for 30 min in 200 μl KRB containing 3 mmol/l glucose under 5% CO2/95% air with shaking at 37° C., followed by a second incubation in 200 μl KRB containing either 3 or 20 mmol/l glucose. Buffer was sampled for insulin after 30 min using a mouse insulin ELISA kit (Linco Research, Mo., USA).

bax = assay: Real-time qRT-PCR of islets, bax; assay type: cell-based, mice
Method: as §2

bak = assay: Real-time qRT-PCR of islets, bak; assay type: cell-based, mice; conditions: 5 μM thapsigargin, data not shown
Method: as §2

Compound: O=C[C@H](O)[C@@H](O)[C@H](O)[C@H](O)CO [D-glucose]
- iNOS expression (iNOS): no iNOS expression
- Fas expression on islet cells (Fas): slight but insignificant rise
- release of cytochrome c from the mitochondria ([1]; high glucose (33.3 mM), 4 days, compared to untreated islets): significant increase
- up-regulation of bim mRNA (bim): no up-regulation
- DNA fragmentation ([2]; 33.3 mM D-glucose, 6 days, compared to low glucose media (5.6 mM)): modest but significant increase

Compound: O=C[C@H](O)[C@H](O)[C@H](O)CO [ribose, D-ribose]
- increase in expression of puma (puma; 50 mM ribose, 48 h): 4 fold
- release of cytochrome c from the mitochondria ([1]; high ribose (50 mM), 3 days, compared to high glucose): more pronounced
- insulin secretory function after glucose stimulation (wild type islets): significant loss
- increase in expression of bax (bax; 50 mM ribose, 48 h): 4 fold
- up-regulation of bim mRNA (bim): no up-regulation
- Bim expression (bim; ribose incubation (50 mM)): remained unchanged
- DNA fragmentation ([2]; 50 mM ribose, 4-day period, compared to high concentrations of glucose): significantly more DNA fragmentation

Compound: C/C=C(/C)C(=O)O[C@H]1C(C)=C2[C@H]([C@@H]1OC(=O)CCCCCCC)[C@@](C)(OC(C)=O)C[C@H](OC(=O)CCC)[C@@]1(O)[C@H]2OC(=O)[C@@]1(C)O [thapsigargin, reference compound]
- increase in expression of puma (puma; 5 μM thapsigargin, 24 or 48 h): 2-7 fold
- increase in expression of bak (bak): 2-7 fold
- increase in expression of bax (bax; 5 μM thapsigargin, 24 or 48 h): 2-7 fold
- increase in expression of bim (bim; 5 μM thapsigargin): not

Compound: z-Val-Ala-Aspfluoromethylketone [z-VAD.fmk, reference compound]
- inhibition of ribose-induced islet cell DNA fragmentation ([2]; pan-caspase inhibitor used at 100 μmol/L): significantly inhibited
